# Measurements: PMC3170264 (Retrovirology, 2011)
# Columns and labels:
# [1] = target: HIV-2 IN E92Q (Human immunodeficiency virus type 2 subtype B, UniProt Q89928, E1260Q/I1218V/I1301V/I1372V/M1455R/N1185G/N1438H/R1202K/R1392Q/T1348V/T1383A/V1460M); conditions: E92Q in N1 background; 200 nM IN
# Experimental: (§1) Mutations were introduced in the HIV-2 N1 background by mutagenesis. […] Activity is expressed as a % of control without drug. Experiments were performed two times.
# (§2) The IN coding sequences from the viruses isolated from the plasma of HIV-2-infected patients N1 to N3 and T1 to T7 were amplified by PCR and sequenced according to a previously described procedure. PCR products corresponding to the entire IN sequence were amplified again with the following specific primers containing NdeI and BamH I restriction sites at their 5' ends. Primer 1: N1, N2, T1, T2, 5'-[…]-3'; N3, 5'-[…]-3'; T3-T7, 5'-[…]-3'. Primers 2: N1, 5'-[…]-3'; N2, 5'-[…]-3'; N3, 5'-[…] The amplicons were then ligated into the TA cloning plasmid pGEM-T easy (Promega, Madison, USA). Single (E92Q, T97A, G140S, Q148R, Y143C, N155H) and double (G140S/Q148R, Y143C/N155H, E92Q/Y143C and T97A/Y143C) mutations were introduced into the HIV-2 wild-type N1 sequence by mutagenesis using the QuickChange II site-directed mutagenesis kit (Agilent Technologies, Santa Clara, USA) according to the manufacturer instructions. NdeI - BamH fragments covering the IN coding sequence were then inserted into the expression vector pET-15b.
# (§3) The activity of wild-type and mutated INs was determined in vitro, as previously described. Briefly, oligonucleotides (ODN) mimicking the end of the U5 long terminal repeat of the viral genome were radiolabeled with T4 polynucleotide kinase (Biolabs, Ipswich, USA) and [γ-^32P] ATP (3,000 Ci/mmol) (Amersham, GE Healthcare, USA), then purified on a Sephadex G-10 column (GE Healthcare, USA). Double-stranded ODNs were obtained by mixing equimolar amounts of complementary strands in the presence of 100 mM NaCl.
# [2] = target: HIV-2 IN N155H (Human immunodeficiency virus type 2 subtype B, UniProt Q89928, I1218V/I1301V/I1372V/M1455R/N1185G/N1323H/N1438H/R1202K/R1392Q/T1348V/T1383A/V1460M); conditions: N155H in N1 background; 200 nM IN
# Experimental: as §1, §2, §3
# [3] = target: HIV-2 IN G140S/Q148R (Human immunodeficiency virus type 2 subtype B, UniProt Q89928, G1308S/I1218V/I1301V/I1372V/M1455R/N1185G/N1438H/Q1316R/R1202K/R1392Q/T1348V/T1383A/V1460M); conditions: G140S/Q148R in N1 background; 200 nM IN
# Experimental: as §1, §2, §3
# [4] = target: HIV-2 IN T97A/Y143C (Human immunodeficiency virus type 2 subtype B, UniProt Q89928, I1218V/I1301V/I1372V/M1455R/N1185G/N1438H/R1202K/R1392Q/T1265A/T1348V/T1383A/V1460M/Y1311C); conditions: T97A/Y143C in N1 background; 200 nM IN
# Experimental: as §1, §2, §3
# [5] = target: HIV-2 IN Y143C (Human immunodeficiency virus type 2 subtype B, UniProt Q89928, I1218V/I1301V/I1372V/M1455R/N1185G/N1438H/R1202K/R1392Q/T1348V/T1383A/V1460M/Y1311C); conditions: Y143C in N1 background; 200 nM IN
# Experimental: as §1, §2, §3
# [6] = target: T1, HIV-2 N3 IN (Human immunodeficiency virus type 2 subtype B, UniProt Q89928, A1457T/D1293E/D1331N/F1194Y/I1218V/I1301V/I1428V/K1172N/M1455R/N1185G/N1438H/Q1389K/R1202K/R1392Q/T1348A/T1383A); test: strand transfer inhibition, IN from clinical isolate N3; type: biochemical; conditions: IN from RAL-naive patient N3; 200 nM IN; 37°C; Mg2+
# T1 construct: His-tag (pET-15b) (N); made in house; host or cells: Escherichia coli BL21-CodonPlus (DE3)-RIPL
# T1 sequence (Q89928 1169-1461 K1172N/N1185G/F1194Y/R1202K/I1218V/D1293E/I1301V/D1331N/T1348A/T1383A/Q1389K/R1392Q/I1428V/N1438H/M1455R/A1457T): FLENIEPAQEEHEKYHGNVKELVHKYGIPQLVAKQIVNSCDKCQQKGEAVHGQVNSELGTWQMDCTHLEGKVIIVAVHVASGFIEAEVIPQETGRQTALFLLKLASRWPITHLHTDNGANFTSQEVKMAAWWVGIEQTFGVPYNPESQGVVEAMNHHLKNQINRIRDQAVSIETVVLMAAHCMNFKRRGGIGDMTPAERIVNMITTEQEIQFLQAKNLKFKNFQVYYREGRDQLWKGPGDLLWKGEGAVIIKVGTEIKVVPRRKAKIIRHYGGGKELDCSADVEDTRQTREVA
# Experimental: (§4) The ST reaction was performed using a ^32P-labeled oligonucleotide mimicking the preprocessed substrate. Drug concentrations are indicated above each lane. […] Activity is expressed as a % of control without drug. Experiments were repeated two times.
# (§5) The HIV-2 ODN substrate sequences were: UA: 5'-[…]-3'; U5B: 5'-[…]-3'; U5B-2: 5'-[…] […]-3'.
# [7] = system: wild-type HIV-2; conditions: phenotypic susceptibility similar to that of HIV-1; cited from earlier work
# [8] = target: T2, HIV-2 N2 IN (Human immunodeficiency virus type 2 subtype B, UniProt Q89928, I1301V/I1428V/M1455R/N1185G/N1438H/R1202K/R1392Q/T1348A/T1383N/V1343I/V1460M); test: strand transfer inhibition, IN from clinical isolate N2; type: biochemical; conditions: IN from RAL-naive patient N2; 200 nM IN; 37°C; Mg2+
# T2 construct: His-tag (pET-15b) (N); made in house; host or cells: Escherichia coli BL21-CodonPlus (DE3)-RIPL
# T2 sequence (Q89928 1169-1464 N1185G/R1202K/I1301V/V1343I/T1348A/T1383N/R1392Q/I1428V/N1438H/M1455R/V1460M limits assumed): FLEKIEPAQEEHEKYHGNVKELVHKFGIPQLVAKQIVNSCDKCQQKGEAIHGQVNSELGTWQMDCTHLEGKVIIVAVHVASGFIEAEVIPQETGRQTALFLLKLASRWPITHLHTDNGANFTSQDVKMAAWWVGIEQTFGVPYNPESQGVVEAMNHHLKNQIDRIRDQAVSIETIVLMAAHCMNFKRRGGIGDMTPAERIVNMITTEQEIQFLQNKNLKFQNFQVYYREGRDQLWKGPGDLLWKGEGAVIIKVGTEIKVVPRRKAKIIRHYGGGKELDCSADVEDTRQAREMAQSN
# Experimental: as §4, §5
smiles,measurement,setting,value
"Cc1nnc(C(=O)NC(C)(C)c2nc(C(=O)NCc3ccc(F)cc3)c(O)c(=O)n2C)o1 [RAL, raltegravir]","resistance to RAL, strand transfer",[1],did not confer significant resistance
same,"resistance to RAL, strand transfer",[2],high level of resistance
same,"resistance to RAL, strand transfer",[3],highly resistant
same,"resistance to RAL, strand transfer",[4],did not lead to detectable IN resistance
same,"resistance to RAL, strand transfer",[5],did not lead to significant resistance
same,IC50,[6],48 nM
same,activity against wild-type HIV-2,[7],active
same,IC50,[8],30 nM
